This is an account of results in PubChem BioAssay AID449750 (Broad Institute, 2010).

Calls of active or inactive are those of the source. How the calls were made is not given here. Where only a bound is given, the exact number is not on record here.

The nature of the test: non-covalent RecA intein splicing inhibitors, dose response, biochemical, cell-free, fluorescence, secondary screen (AID 449750).
The AC50 is the concentration at which the activity in the assay is half-maximal. For `ONc1cccnc1-n1nc(C(F)(F)F)cc1C(F)(F)F`, the AC50 was > 38 µM (inactive). Turning to `O=C(CSc1ncnc2c1nnn2Cc1ccccc1F)N1CCN(c2ccccc2)CC1`, the AC50 was > 38 µM (inactive). On to `CN(C)/C=C/C(=O)c1ccc2noc(-c3ccc(F)cc3)c2c1`, for which the AC50 is > 38 µM (inactive). `CC1OC(Nc2cccc3ccccc23)C(O)C(O)C1O` (stereo not given): the AC50 is > 38 µM (inactive).

`Nc1nn2c(-c3ccccc3)cc(=O)[nH]c2c1N=Nc1ccc(O)cc1`: the AC50 is > 38 µM (inactive).

As to `O=[N+]([O-])c1cccc2c([As](=O)(O)O)cccc12`, the AC50 was > 38 µM (inactive). Take `COC(=O)c1nc(-c2ccc3c(n2)C(=O)C(N)=C(OC)C3=O)c(N)c(-c2ccc(OC)c(OC)c2O)c1C`: the half-maximal activity concentration (AC50) is 0.763 µM. Consider `COc1ccc(N(C(=O)CCl)C(C(=O)NC2CCCCC2)c2cccnc2)cc1` (stereo not given), for which the AC50 is 3.87 µM. Take `Cc1ccc(N(C(=O)CCl)C(C(=O)NC2CCCCC2)c2cccnc2)cc1C` (stereo not given): the AC50 was 1 µM. The figure for `COc1ccccc1Nc1cc2cc(Br)ccc2c(=O)[nH]1` is 6.07 µM. In the case of `Cc1ccc(-c2[nH]nc3c2C(c2ccc(OC(=O)N4CCOCC4)cc2)C(C#N)=C(N)O3)cc1` (stereo not given), the half-maximal activity concentration (AC50) is 21.1 µM. On to `Cc1oc2c(c1C(=O)NCc1cccnc1)C(=O)c1ccccc1C2=O`, for which the half-maximal activity concentration (AC50) is 1.4 µM. In the case of `CCCOC(=O)c1ccc(OC(=O)c2ccco2)cc1`, the AC50 was > 38 µM (inactive). `Cc1ccc(CNC(=O)CCN2C(=O)[C@@H]3Cc4ccccc4CN3C2=O)cc1`: the AC50 was > 38 µM (inactive). The value for `Cc1ccc(CS(=O)(=O)c2ncc(Cl)c(C(=O)Nc3nnc(C)s3)n2)cc1` was > 38 µM (inactive); that for `O=C(CCl)Nc1c2c(nn1-c1ccccc1)CSC2` was 29.2 µM; that for `CN1c2ccccc2C(C)(C)C12C=Nc1c(ccc3ccccc13)O2` (stereo not given) was 21.2 µM. Take `OC(CNCCC1C=Nc2ccccc21)Cn1c2ccc(Cl)cc2c2cc(Cl)ccc21` (stereo not given): the concentration at half-maximal activity (AC50) was 8.48 µM. Consider `CN(Cc1ccc(Cl)s1)C(=O)CCl`, for which the concentration at half-maximal activity (AC50) is 19.3 µM. With `COc1ccc(C2=NN(C(=O)/C=C/c3ccccc3)C(c3ccccc3)C2)c(OC(C)=O)c1` (stereo not given), the AC50 was 2.24 µM.

For the compound `Cc1[nH]nc2c1C(c1cn[nH]c1-c1ccc(F)cc1)C(C#N)=C(N)O2` (stereo not given), the AC50 was > 38 µM (inactive). The value for `COc1ccc(-c2cc(CNC(=O)CCl)on2)cc1` was 16.1 µM; that for `Cc1ccc(Sc2ncnc3onc(C)c23)cc1` was > 38 µM (inactive). With `Cc1ccc(C(=O)c2coc3cc([N+](=O)[O-])c(O)c([N+](=O)[O-])c23)cc1`, the AC50 was > 38 µM (inactive). For `Cc1ccc(-c2nc(CN3CCCC(C(=O)N4CCOCC4)C3)c(C)o2)cc1` (stereo not given), the AC50 is > 38 µM (inactive). The value for `CC(=O)n1cc(N(C(=O)CCl)c2ccc(Cl)cc2)c2ccccc21` was 2.08 µM. The value for `CC(CCc1ccccc1)NC(=O)COC(=O)c1cc(NS(=O)(=O)c2ccc(Cl)c([N+](=O)[O-])c2)ccc1O` (stereo not given) was 18.8 µM; that for `CCCc1[nH]nc2c1C(c1ccccc1OC)C(C#N)=C(N)O2` (stereo not given) was > 38 µM (inactive); that for `CC(=O)Nc1ccccc1NC(=O)C/C(C)=N/NC(=O)C(=O)N1CCCCC1` was > 38 µM (inactive). The value for `COc1cc(C2C(C#N)=C(N)Oc3n[nH]c(-c4cccnc4)c32)cc(Br)c1O` (stereo not given) was 4.01 µM. With `O=C1C(Cl)=C(NCc2cccnc2)C(=O)c2ccccc21`, the AC50 is 13.6 µM. In the case of `Nc1c(O)cccc1C(=O)O`, the concentration at half-maximal activity (AC50) was 27.2 µM.

As to `C/C(CC(=O)Nc1cc(C)ccn1)=N\NC(=O)c1ccncc1`, the concentration at half-maximal activity (AC50) is 37.4 µM. Consider `Cc1ccc2[nH]c3c(c2c1)CN(C(=O)CN1CCSCC1)CC3`, for which the AC50 is > 38 µM (inactive). Take `CC(C)OC(=O)CN1C(=O)C(=O)c2ccccc21`: the AC50 was 37.2 µM.

In the case of `CCN(CC)C(=O)CSc1nnc2nnc3cc(OC)ccc3n12`, the AC50 is > 38 µM (inactive).

Consider `Cc1ccc(NC(=O)c2sc3ncnc(N4CCN(c5ccccn5)CC4)c3c2C)c(C)c1`, for which the AC50 is > 38 µM (inactive). As to `O=C(OCn1ncc(Cl)c(Cl)c1=O)c1ccc(C(F)(F)F)cc1`, the AC50 was 3.99 µM. For the compound `Cc1cc(C(=O)N/N=C/c2c(C)[nH]n(-c3ccccc3)c2=O)n[nH]1`, the concentration at half-maximal activity (AC50) was 3.74 µM. `N=C(N)SCc1cn(-c2ccccc2)nc1-c1ccc(Br)cc1`: the concentration at half-maximal activity (AC50) was 16.2 µM. With `O=C(COC(=O)C1CC(=O)N(Cc2ccco2)C1)c1ccc(OC(=O)c2ccco2)cc1` (stereo not given), the AC50 was > 38 µM (inactive).

On to `Cc1[nH]n(C(N)=S)c(=O)c1C(c1ccccc1)C(C#N)C#N` (stereo not given), for which the AC50 is > 38 µM (inactive).

Regarding `CC(C)c1[nH]nc2c1C1(CCN(Cc3ccccc3)CC1)C(C#N)=C(N)O2`, the AC50 is > 38 µM (inactive).

With `Cc1ccc(NC2=C(NC(=O)c3ccccc3)C(=O)c3ccccc3C2=O)cc1Cl`, the AC50 is 7.45 µM. Consider `COc1ccc(C(=O)n2nnc3ccccc32)cc1Br`, for which the AC50 is > 38 µM (inactive). For the compound `CN(C(=O)c1cccc(COc2ccc(Cl)cc2Cl)c1)c1ccccc1`, the AC50 was > 38 µM (inactive).

As to `Cc1ccccc1NC1=C(Cl)C(=O)OC1OC(=O)c1ccco1` (stereo not given), the AC50 is > 38 µM (inactive).

In the case of `Cn1[nH]c(CSc2ccc(Cl)cc2)cc1=O`, the concentration at half-maximal activity (AC50) was 13.3 µM. Consider `CCCc1[nH][nH]c(=O)c1C(c1cccc(Cl)c1)C(C#N)C#N` (stereo not given), for which the concentration at half-maximal activity (AC50) is 9.32 µM. As to `NS(=O)(=O)c1ccc(NC2=CC(=O)C(=O)c3ccccc32)cc1`, the AC50 was 7.47 µM. For `Cc1cc(C(=O)CCl)c(C)n1CC1COc2ccccc2O1` (stereo not given), the AC50 was 19.4 µM. For the compound `C[n+]1c2ccccc2nc2ccc(NCCO)cc21`, the half-maximal activity concentration (AC50) is 10.1 µM. Take `Cc1sc(NC(=O)CCl)c(C(=O)c2ccccc2)c1C`: the AC50 was 5.28 µM. For the compound `COc1ccc(-n2nc3c(c2NC(=O)CCl)CSC3)cc1`, the AC50 was 26.9 µM. `CC(C)(C)Nc1nc(Cl)nc(N(C#N)CN2C(=O)c3ccccc3S2(=O)=O)n1`: the AC50 is > 38 µM (inactive).

In the case of `COc1ccc(-c2[nH]nc3c2C(c2ccncc2)C(C#N)=C(N)O3)cc1` (stereo not given), the half-maximal activity concentration (AC50) is 39.9 µM. The figure for `COc1cccc(NC2=C(Cl)C(=O)OC2OC(=O)c2ccco2)c1` (stereo not given) is > 38 µM (inactive). Take `Cc1ccc(S[C@@H](CCN2CC[C@H](C)CCC2=O)c2ccccc2)cc1`: the half-maximal activity concentration (AC50) was 15.2 µM. For `C=COC(=O)CSc1snc(SCC(=O)OC)c1C#N`, the AC50 is > 38 µM (inactive). On to `COc1ccccc1C1C(C#N)=C(N)Oc2c1c(-c1ccccc1)nn2-c1ccccc1` (stereo not given), for which the AC50 is 11.9 µM. Turning to `Cc1[nH]nc2c1C(c1ccsc1C)C(C#N)=C(N)O2` (stereo not given), the AC50 is > 38 µM (inactive). As to `COC(=O)c1cccc(N2C(=O)C(Cl)=C(N3CCOCC3)C2=O)c1`, the AC50 is > 38 µM (inactive). Regarding `Oc1cccc(C=Nc2cccc3ccccc23)c1O`, the concentration at half-maximal activity (AC50) is 4.42 µM. The figure for `Nc1ccc(N)c(C(=O)O)c1` is 21 µM. Regarding `CC(=O)n1cc(N(C(=O)CCl)c2ccc([N+](=O)[O-])cc2)c2ccccc21`, the AC50 is 4.74 µM. Turning to `Cc1[nH]nc2c1C1(CCC(c3ccccc3)CC1)C(C#N)=C(N)O2` (stereo not given), the AC50 is > 38 µM (inactive). Turning to `Cc1ccc(C)c(-c2ccc(=O)n(Cc3cccc(Br)c3)n2)c1`, the AC50 was 16.7 µM. As for `Cc1ccc(-c2noc(-c3ccccc3C(=O)N3CCOCC3)n2)cc1`, the AC50 is > 38 µM (inactive). The value for `O=C(CCl)Nc1cc(S(=O)(=O)N2CCCCCC2)ccc1Cl` was 4.92 µM; that for `CCOC(=O)CN1C(=O)N[C@@H](c2cccc(C(F)(F)F)c2)C(C(C)=O)=C1C` was > 38 µM (inactive); that for `O=c1[nH]cc(O)c(=O)[nH]1` was 7.38 µM.

Consider `O=C(Nc1ccc(Cl)c(Cl)c1)Nc1ccccc1NS(=O)(=O)c1cccs1`, for which the AC50 was 30.3 µM. The figure for `O=c1cc(-c2ccc(Br)cc2)[nH][nH]1` is 13.4 µM.

Consider `CCCCCCCCCC[N+](C)(C)CC/C=C1/c2ccccc2Sc2ccc(Cl)cc21`, for which the concentration at half-maximal activity (AC50) is 5.09 µM. Take `O=C(N/N=C/c1coc2ccc(Cl)cc2c1=O)c1ccc(O)cc1`: the AC50 was > 38 µM (inactive). The figure for `COc1ccc(Br)cc1[C@H]1[C@@H]2C=CCC[C@@]2(C)C(=O)N1Cc1ccccc1` is > 38 µM (inactive). On to `CN(C)c1ccc(NC(=O)c2ccncc2)c2ccccc12`, for which the AC50 is > 38 µM (inactive).

Turning to `Cn1cnc([N+](=O)[O-])c1S(=O)(=O)c1cccc(Cl)c1`, the AC50 was 30 µM. Consider `CCOC(=O)c1c(NC(=O)c2ccco2)n(C2CCCCC2)c2nc3ccccc3nc12`, for which the AC50 is > 12 µM (inactive). Take `Cc1cccc(CS(=O)(=O)c2nnc([C@H](Cc3ccccc3)NC(=O)OC(C)(C)C)o2)c1`: the AC50 was > 38 µM (inactive). Consider `C/C(CC(=O)Nc1ccccn1)=N\NC(=O)c1cccc(C)c1`, for which the AC50 is > 38 µM (inactive). Consider `CCCc1nnc(NC(=O)c2nc(S(=O)(=O)Cc3cccc(C)c3)ncc2Cl)s1`, for which the AC50 is > 38 µM (inactive). The value for `O=C1/C(=C/Nc2ccc3c(c2)OCO3)CCc2ccccc21` was 4 µM. As for `Cc1nn(Cc2ccccc2)c2c1C(c1ccncc1)C(C#N)=C(N)O2` (stereo not given), the AC50 was > 38 µM (inactive). For `N#Cc1nccnc1S(=O)(=O)c1cccs1`, the AC50 was > 38 µM (inactive). The value for `CN(C1=C(NC(=O)c2ccc(Cl)cc2)C(=O)c2ccccc2C1=O)c1ccccc1` was 15 µM. Consider `OC(COC(c1ccc(Cl)cc1)c1ccc(Cl)cc1)CN1CCc2ccccc2C1` (stereo not given), for which the AC50 is 3.84 µM. On to `COc1cccc(/C=C2\SC(=S)N(CCCC(=O)N(CCO)c3ccccc3)C2=O)c1`, for which the AC50 is > 38 µM (inactive). As to `CCCc1[nH]nc2c1C(c1ccoc1)C(C#N)=C(N)O2` (stereo not given), the AC50 was > 38 µM (inactive). Take `O=c1cc(-c2ccc(F)cc2)[nH][nH]1`: the AC50 was 17.2 µM. As for `Cc1cccc(Cn2ncc(Cl)c(Cl)c2=O)c1`, the AC50 was 18 µM. Turning to `COc1ccccc1CN1CCSCC1`, the AC50 is > 38 µM (inactive).

Turning to `COc1ccc(C(O)c2nccc3cc(OC)c(OC)cc23)cc1OC` (stereo not given), the AC50 is > 38 µM (inactive). Turning to `O=C(N/N=C/c1c(O)n(C2CCCCC2)c(=S)[nH]c1=O)c1ccccc1O`, the AC50 is 4.36 µM.

For the compound `O=S(=O)(Nc1ccc(O)c2ccccc12)c1ccc(F)cc1`, the concentration at half-maximal activity (AC50) was 0.377 µM.
